{"source": "patent US6503929B1", "about": "“Nitrate salt of anti-ulcer medicine” (Nicox S.A., priority 1998, dated 2003)", "key": {"rats [1]": {"tested_on": "rats", "experiment": "Anti-ulcer activity: gastric lesions produced by absolute ethyl alcohol (Robert et al. model)", "type": "in vivo, rat", "conditions": "rats on empty stomach, oral dose 15 minutes before absolute ethyl alcohol (1 ml), sacrificed one hour later, cimetidine 50 mg/Kg, cimetidine nitrate 62,5 mg/Kg, ranitidine 50 mg/Kg, ranitidine nitrate 60 mg/Kg", "experimental": "Anti-ulcer activity is evaluated according to the experimental model described in the paper of A. Robert e Al. “Cytoprotection by prostaglandins in rats. Prevention of gastric necrosis produced by alcohol, HCl, NaOH, hypertonic NaCl and thermal injury” 77, 433-43 1979. To 5 groups of 10 rats each, kept on empty stomach since the previous night, 15 minutes before the supply of absolute ethyl alcohol (1 ml), by oral way are supplied: 5 ml/Kg of carboxymethylcellulose aqueous suspension 2%. 50 mg/Kg of cimetidine in 5 ml/Kg of carboxymethylcellulose aqueous suspension 2%. 62,5 mg/Kg of cimetidine nitrate (corresponding to 50 mg/Kg of cimetidine) in 5 ml/Kg of carboxymethylcellulose aqueous suspension 2%. 50 mg/Kg of ranitidine in 5 ml/Kg of carboxymethylcellulose aqueous suspension 2%. 60 mg/Kg of ranitidine nitrate (corresponding to […]) in 5 ml/Kg of carboxymethylcellulose aqueous suspension 2%. A hour later the animals are sacrificed and the gastric lesion incidence is evaluated."}, "rats [2]": {"tested_on": "rats", "conditions": "rat, in vivo, po, 100 mg/kg"}}, "note": "Where a name gives a salt, the structure may show the parent alone.", "data": [{"compound": "CN/C(=N/CCSCc1nc[nH]c1C)NC#N", "note": "[Cimetidine, cimetidine, reference compound]", "values": [{"measurement": "Gastric Damage %", "setting": "rats [1]", "value": 100, "unit": "%"}]}, {"compound": "CNC(=C[N+](=O)[O-])NCCSCc1ccc(CN(C)C)o1", "note": "[Ranitidine, ranitidine, reference compound]", "values": [{"measurement": "Gastric Damage %", "setting": "rats [1]", "value": 80, "unit": "%"}]}, {"compound": "CNC(=C[N+](=O)[O-])NCCSCc1ccc(CN(C)C)o1", "note": "[Ranitidine.HNO3, ranitidine mononitrate salt]", "values": [{"measurement": "Gastric Damage %", "setting": "rats [1]; mononitrate salt", "value": 40, "unit": "%"}, {"measurement": "toxic symptom presence", "setting": "rats [2]", "value": "In no one of the group animals the toxic symthom presence was noted"}]}, {"compound": "cimetidine mononitrate salt [Cimetidine.HNO3]", "values": [{"measurement": "Gastric Damage %", "setting": "rats [1]", "value": 50, "unit": "%"}]}]}
